In ChEMBL document CHEMBL3885881, “DrugMatrix”:

Species: Rattus norvegicus
Assay: DrugMatrix - Regimen: Daily Repeat
Type: toxicity, organism-based, Sprague-Dawley
Design: regimen Daily Repeat, gender Male, age 6-8 weeks
Conditions: in vivo, po, route oral GAVAGE, vehicle .5 % CMC; for ALANINE AMINOTRANSFERASE / ALBUMIN / ALKALINE PHOSPHATASE / ASPARTATE AMINOTRANSFERASE / BLOOD UREA NITROGEN / CARBON DIOXIDE / CHLORIDE / CHOLESTEROL / CREATINE PHOSPHOKINASE / CREATININE / GLUCOSE / LACTATE DEHYDROGENASE / LIPASE / PHOSPHORUS / POTASSIUM / SODIUM / TOTAL BILIRUBIN / TOTAL PROTEIN / URIC ACID: tissue Plasma; for ABSOLUTE BASOPHIL / ABSOLUTE EOSINOPHIL / ABSOLUTE LYMPHOCYTE / ABSOLUTE MONOCYTE / ABSOLUTE SEGMENTED NEUTROPHIL / BASOPHIL / EOSINOPHIL / ERYTHROCYTE COUNT / HEMATOCRIT / HEMOGLOBIN / LEUKOCYTE COUNT / LYMPHOCYTE / MEAN CORPUSCULAR HEMOGLOBIN / MEAN CORPUSCULAR HEMOGLOBIN CONCENTRATION / MEAN CORPUSCULAR VOLUME / MONOCYTE / NEUTROPHIL / NUCLEATED RED BLOOD CELLS / PLATELET COUNT: tissue Blood
[1] = 88 mg/kg, 72 h, dose level Low, time 3 day
[2] = 88 mg/kg, 120 h, dose level Low, time 5 day
[3] = 2000 mg/kg, 72 h, dose level High, time 3 day

CC(C)[C@H](N)C(=O)OCCOCn1cnc2c(=O)[nH]c(N)nc21 [VALACYCLOVIR]
ALANINE AMINOTRANSFERASE [1]: 55 u/L
ALBUMIN [1]: 4.33 G/DL
ALKALINE PHOSPHATASE [1]: 415.33 u/L
ASPARTATE AMINOTRANSFERASE [1]: 100.67 u/L
BLOOD UREA NITROGEN [1]: 14.67 mg/dL
CARBON DIOXIDE [1]: 27 mmol/L
CHLORIDE [1]: 101 MEQ/L
CHOLESTEROL [1]: 77 mg/dL
CREATINE PHOSPHOKINASE [1]: 717.67 u/L
CREATININE [1]: 0.2 mg/dL
GLUCOSE [1]: 147.33 mg/dL
LACTATE DEHYDROGENASE [1]: 667.67 u/L
LIPASE [1]: 10.67 u/L
PHOSPHORUS [1]: 12.5 mg/dL
POTASSIUM [1]: 6.48 MEQ/L
SODIUM [1]: 144.3 MEQ/L
TOTAL BILIRUBIN [1]: 0.2 mg/dL
TOTAL PROTEIN [1]: 6.23 G/DL
URIC ACID [1]: 1.4 mg/dL
ABSOLUTE BASOPHIL [2]: 0 CELLS/uL
ABSOLUTE EOSINOPHIL [2]: 94 CELLS/uL
ABSOLUTE LYMPHOCYTE [2]: 9072.33 CELLS/uL
ABSOLUTE MONOCYTE [2]: 117.33 CELLS/uL
ABSOLUTE SEGMENTED NEUTROPHIL [2]: 1283 CELLS/uL
BASOPHIL [2]: 0%
EOSINOPHIL [2]: 0.67%
ERYTHROCYTE COUNT [2]: 5.42 x10E6/uL
HEMATOCRIT [2]: 33.93%
HEMOGLOBIN [2]: 13.17 G/DL
LEUKOCYTE COUNT [2]: 10.57 x10E3/uL
LYMPHOCYTE [2]: 86.33%
MEAN CORPUSCULAR HEMOGLOBIN [2]: 24.3 pg
MEAN CORPUSCULAR HEMOGLOBIN CONCENTRATION [2]: 38.83 G/DL
MEAN CORPUSCULAR VOLUME [2]: 62.57 fL
MONOCYTE [2]: 1.33%
NEUTROPHIL [2]: 11.67%
NUCLEATED RED BLOOD CELLS [2]: 0 /100WBC
PLATELET COUNT [2]: 1317.67 x10E3/uL
ALANINE AMINOTRANSFERASE [2]: 58.33 u/L
ALBUMIN [2]: 4.43 G/DL
ALKALINE PHOSPHATASE [2]: 393 u/L
ASPARTATE AMINOTRANSFERASE [2]: 91 u/L
BLOOD UREA NITROGEN [2]: 18 mg/dL
CARBON DIOXIDE [2]: 28.33 mmol/L
CHLORIDE [2]: 103.33 MEQ/L
CHOLESTEROL [2]: 75.33 mg/dL
CREATINE PHOSPHOKINASE [2]: 215.67 u/L
CREATININE [2]: 0.21 mg/dL
GLUCOSE [2]: 137.33 mg/dL
LACTATE DEHYDROGENASE [2]: 175.67 u/L
LIPASE [2]: 9.33 u/L
PHOSPHORUS [2]: 13.03 mg/dL
POTASSIUM [2]: 7.1 MEQ/L
SODIUM [2]: 147.83 MEQ/L
TOTAL BILIRUBIN [2]: 0.23 mg/dL
TOTAL PROTEIN [2]: 6.33 G/DL
URIC ACID [2]: 1.57 mg/dL
ABSOLUTE BASOPHIL [3]: 0 CELLS/uL
ABSOLUTE EOSINOPHIL [3]: 83 CELLS/uL
ABSOLUTE LYMPHOCYTE [3]: 8794.67 CELLS/uL
ABSOLUTE MONOCYTE [3]: 95 CELLS/uL
ABSOLUTE SEGMENTED NEUTROPHIL [3]: 994 CELLS/uL
BASOPHIL [3]: 0%
EOSINOPHIL [3]: 1%
ERYTHROCYTE COUNT [3]: 4.99 x10E6/uL
HEMATOCRIT [3]: 31.53%
HEMOGLOBIN [3]: 12.63 G/DL
LEUKOCYTE COUNT [3]: 9.97 x10E3/uL
LYMPHOCYTE [3]: 88%
MEAN CORPUSCULAR HEMOGLOBIN [3]: 25.3 pg
MEAN CORPUSCULAR HEMOGLOBIN CONCENTRATION [3]: 40.1 G/DL
MEAN CORPUSCULAR VOLUME [3]: 63.07 fL
MONOCYTE [3]: 1%
NEUTROPHIL [3]: 10%
NUCLEATED RED BLOOD CELLS [3]: 0 /100WBC
PLATELET COUNT [3]: 1175 x10E3/uL
ALANINE AMINOTRANSFERASE [3]: 43.33 u/L
ALBUMIN [3]: 4 G/DL
ALKALINE PHOSPHATASE [3]: 329.67 u/L
ASPARTATE AMINOTRANSFERASE [3]: 81.67 u/L
BLOOD UREA NITROGEN [3]: 79.33 mg/dL
CARBON DIOXIDE [3]: 22.67 mmol/L
CHLORIDE [3]: 101 MEQ/L
CHOLESTEROL [3]: 118.67 mg/dL
CREATINE PHOSPHOKINASE [3]: 274.33 u/L
CREATININE [3]: 1.22 mg/dL
GLUCOSE [3]: 158.33 mg/dL
LACTATE DEHYDROGENASE [3]: 182 u/L
LIPASE [3]: 10.67 u/L
PHOSPHORUS [3]: 10.07 mg/dL
POTASSIUM [3]: 5.9 MEQ/L
SODIUM [3]: 143.87 MEQ/L
TOTAL BILIRUBIN [3]: 0.23 mg/dL
TOTAL PROTEIN [3]: 6.3 G/DL
URIC ACID [3]: 1.2 mg/dL
